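Values below derive from 48-hour exposures of cells grown in 96-well plates, with endpoints linearly interpolated between the two concentrations bracketing the appropriate inhibition level. GI50 = concentration required for 50% inhibition of growth.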 Active and inactive are the calls of the source. No stated cut-off is given here; in the data, active = GI50 up to about 1.1 µM and inactive = higher.
Columns and labels:
Test in all cases: NCI-60 cell line screen, 48 h
CAKI-1 = system: CAKI-1
EKVX = system: EKVX
HCT-116 = system: HCT-116
HL-60 = system: HL-60
K562 = system: K562
KM12 = system: KM12
M14 = system: M14
MOLT-4 = system: MOLT-4
NCI-H226 = system: NCI-H226
OVCAR-5 = system: OVCAR-5
SK-MEL-2 = system: SK-MEL-2
SNB-19 = system: SNB-19
TK-10 = system: TK-10
UACC-62 = system: UACC-62
HT-29 = system: HT-29
BT-549 = system: BT-549
DU-145 = system: DU-145
MCF7 = system: MCF7
NCI/ADR-RES = system: NCI/ADR-RES

Measured: GI50

COc1cc2c(cc1O)C=NCC2
inactive: CAKI-1 > 100 µM | EKVX > 100 µM | HCT-116 > 100 µM | HL-60 > 100 µM | K562 > 100 µM | KM12 > 100 µM | M14 > 100 µM | MOLT-4 60.5 µM | NCI-H226 > 100 µM | OVCAR-5 > 100 µM | SK-MEL-2 > 100 µM | SNB-19 > 100 µM | TK-10 > 100 µM | UACC-62 > 100 µM

CCSC(SCC)=C1C(=O)N(c2ccccc2)N=C1C
inactive: CAKI-1 3.8 µM | EKVX 13.7 µM | HCT-116 15.1 µM | HL-60 2.33 µM | HT-29 19.1 µM | K562 5.71 µM | KM12 19.3 µM | M14 13.6 µM | MOLT-4 6.98 µM | NCI-H226 15.7 µM | OVCAR-5 15.9 µM | SK-MEL-2 15.8 µM | SNB-19 25.2 µM | TK-10 10.1 µM | UACC-62 13.7 µM

N#C/C(=C(/S)Nc1ccccc1)c1nc2ccccc2[nH]1
inactive: CAKI-1 > 10 µM | EKVX > 10 µM | HCT-116 > 10 µM | HL-60 > 10 µM | K562 > 10 µM | KM12 > 10 µM | M14 > 10 µM | MOLT-4 > 10 µM | NCI-H226 > 10 µM | OVCAR-5 > 10 µM | SK-MEL-2 > 10 µM | SNB-19 > 10 µM | TK-10 > 10 µM | UACC-62 > 10 µM

CN(C)/C(N)=N\C#N
inactive: CAKI-1 > 100 µM | EKVX > 100 µM | HCT-116 > 100 µM | HL-60 > 100 µM | HT-29 > 100 µM | K562 > 100 µM | KM12 > 100 µM | M14 > 100 µM | MOLT-4 > 100 µM | NCI-H226 > 100 µM | OVCAR-5 > 100 µM | SK-MEL-2 > 100 µM | SNB-19 > 100 µM | TK-10 > 100 µM | UACC-62 > 100 µM

Cc1ccc(S(=O)(=O)Nc2cccc3c(=O)nc[nH]c23)cc1
inactive: CAKI-1 > 100 µM | EKVX > 100 µM | HCT-116 99.3 µM | HL-60 23.3 µM | HT-29 > 100 µM | K562 43.6 µM | KM12 > 100 µM | M14 > 100 µM | MOLT-4 34.3 µM | NCI-H226 > 94.6 µM | OVCAR-5 > 100 µM | SK-MEL-2 > 100 µM | SNB-19 > 100 µM | TK-10 > 100 µM | UACC-62 > 87.1 µM

Cc1cc2c3c(coc3c1-c1c(C)cc3c4c(coc14)C(=O)C(O)=C3C(C)C)C(=O)C(O)=C2C(C)C
inactive: CAKI-1 12.8 µM | EKVX 2.28 µM | HCT-116 3.54 µM | HL-60 3.42 µM | HT-29 3.94 µM | K562 3.26 µM | KM12 4.3 µM | M14 11.7 µM | MOLT-4 3.66 µM | NCI-H226 10.1 µM | OVCAR-5 17.9 µM | SK-MEL-2 4.74 µM | SNB-19 4.35 µM | TK-10 14.5 µM | UACC-62 3.73 µM

CC(=O)Nc1ccc(/N=C2\C(c3ccccc3)=C(SC3=C(c4ccccc4)/C(=N\c4ccc(NC(C)=O)cc4)c4ccccc43)c3ccccc32)cc1
inactive: BT-549 24.8 µM | CAKI-1 31.4 µM | DU-145 37.8 µM | EKVX 34.5 µM | HCT-116 34.4 µM | HT-29 36.7 µM | K562 32.6 µM | KM12 27 µM | M14 27 µM | MCF7 27.4 µM | MOLT-4 21.6 µM | NCI-H226 53.6 µM | NCI/ADR-RES 27.2 µM | OVCAR-5 51.5 µM | SK-MEL-2 39.5 µM | SNB-19 56 µM | TK-10 69.7 µM

O=C(c1cccs1)N(C(=S)N1CCN(c2ccccn2)CC1)C1CCCCC1
inactive: CAKI-1 76.2 µM | HCT-116 49.3 µM | HL-60 > 100 µM | HT-29 52 µM | K562 47 µM | KM12 60.5 µM | M14 76.4 µM | MOLT-4 33 µM | NCI-H226 19.5 µM | OVCAR-5 > 100 µM | SK-MEL-2 58.6 µM | SNB-19 > 100 µM | TK-10 > 100 µM | UACC-62 > 100 µM

CC1=C(C(=O)Nc2cc(F)c(F)cc2F)C(c2cccc([N+](=O)[O-])c2)C(C(=O)Nc2ccccc2C(F)(F)F)=C(C)N1 (centres undefined)
inactive: CAKI-1 15.8 µM | EKVX 21.4 µM | HL-60 14.6 µM | HT-29 26.7 µM | K562 14.4 µM | KM12 21.3 µM | M14 22.8 µM | MOLT-4 12.5 µM | NCI-H226 21.3 µM | OVCAR-5 17.9 µM | SK-MEL-2 18 µM | SNB-19 30.7 µM | TK-10 31.8 µM

CCCC1C[C@H]2CCCCN2[C@H]2CCCN12 (some centres undefined)
inactive: CAKI-1 > 100 µM | EKVX > 100 µM | HCT-116 > 45.2 µM | HL-60 > 37.8 µM | HT-29 > 100 µM | K562 > 50.2 µM | KM12 > 100 µM | M14 > 100 µM | MOLT-4 > 100 µM | NCI-H226 > 100 µM | OVCAR-5 > 100 µM | SK-MEL-2 > 100 µM | SNB-19 > 100 µM | TK-10 > 100 µM | UACC-62 > 100 µM

Cc1ccc(NC(=O)CC/C(CC(=O)c2ccc(Cl)cc2)=N\NC(=O)C(=O)NN)cc1C
inactive: CAKI-1 > 100 µM | EKVX > 100 µM | HCT-116 > 100 µM | HL-60 > 100 µM | HT-29 > 100 µM | K562 > 100 µM | KM12 > 100 µM | M14 > 100 µM | MOLT-4 > 100 µM | NCI-H226 > 100 µM | OVCAR-5 > 100 µM | SK-MEL-2 > 100 µM | SNB-19 > 100 µM | TK-10 > 100 µM | UACC-62 > 100 µM

Cc1cn(C2CCC(/C=N\O)O2)c(=O)[nH]c1=O (centres undefined)
inactive: BT-549 > 100 µM | CAKI-1 > 100 µM | DU-145 > 100 µM | EKVX > 100 µM | HCT-116 > 100 µM | HT-29 > 100 µM | K562 > 100 µM | KM12 > 100 µM | M14 > 100 µM | MCF7 > 100 µM | MOLT-4 > 100 µM | NCI-H226 > 100 µM | NCI/ADR-RES > 100 µM | OVCAR-5 > 100 µM | SK-MEL-2 > 100 µM | SNB-19 > 100 µM | UACC-62 > 100 µM

CCOP1(=O)C=CC(Cl)=C(C)C1 (centres undefined)
inactive: CAKI-1 10.5 µM | EKVX 26.4 µM | HCT-116 5.58 µM | HL-60 3.57 µM | HT-29 13.2 µM | K562 5.06 µM | KM12 18.3 µM | M14 14.7 µM | MOLT-4 3.64 µM | NCI-H226 > 100 µM | OVCAR-5 24.2 µM | SK-MEL-2 12.9 µM | SNB-19 67.5 µM | TK-10 19.5 µM | UACC-62 15 µM
